Data: ChEMBL document CHEMBL1143466, “Conformationally constrained N1-arylsulfonyltryptamine derivatives as 5-HT6 receptor antagonists” (Bioorg Med Chem Lett, 2005)

What was measured:
[1] = biological target: T1, 5-hydroxytryptamine receptor 6 (Homo sapiens, UniProt P50406); assay: Displacement of [3H]LSD from cloned human 5-hydroxytryptamine 6 receptor expressed in HeLa cells; format: cell-based
[2] = biological target: T1, 5-hydroxytryptamine receptor 6; assay: Effective concentration for cAMP production in HeLa cells expressing human 5-HT6 receptors; format: functional, cell-based
[3] = biological target: T1, 5-hydroxytryptamine receptor 6; assay: Maximum effective concentration for cAMP production in HeLa cells expressing human 5-HT6 receptors; format: functional, cell-based
[4] = biological target: T1, 5-hydroxytryptamine receptor 6; assay: Inhibition of cAMP production in HeLa cells expressing human 5-HT6 receptor; format: functional, cell-based
[5] = biological target: T1, 5-hydroxytryptamine receptor 6; assay: Maximum inhibition of cAMP production in HeLa cells expressing human 5-HT6 receptors; format: functional, cell-based

T1 sequence (P50406 whole entry): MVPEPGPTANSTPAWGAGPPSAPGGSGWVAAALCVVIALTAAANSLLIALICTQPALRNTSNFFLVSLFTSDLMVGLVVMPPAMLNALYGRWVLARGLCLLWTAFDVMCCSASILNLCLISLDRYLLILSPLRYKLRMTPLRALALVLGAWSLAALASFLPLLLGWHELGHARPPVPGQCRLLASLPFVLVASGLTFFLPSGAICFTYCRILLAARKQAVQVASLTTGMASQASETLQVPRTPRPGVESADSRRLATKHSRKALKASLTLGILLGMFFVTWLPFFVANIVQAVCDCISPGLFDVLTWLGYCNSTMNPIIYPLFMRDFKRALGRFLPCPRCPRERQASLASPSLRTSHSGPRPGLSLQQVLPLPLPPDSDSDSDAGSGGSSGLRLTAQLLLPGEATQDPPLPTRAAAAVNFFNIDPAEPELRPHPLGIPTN

SMILES | Ki [1] | EC50 [2] | Emax [3] | IC50 [4] | Imax [5]
O=S(=O)(c1cccc(Cl)c1)n1cc(C[C@@H]2CCCN2)c2ccccc21 | 22 nM | – | – | – | –
O=S(=O)(c1ccc(Cl)cc1)n1cc(C[C@@H]2CCCN2)c2ccccc21 | 49 nM | – | – | – | –
CN1CCC[C@@H]1Cc1cn(S(=O)(=O)c2ccc(Br)s2)c2ccccc12 | 4 nM | 103 nM | 76.5% | – | –
O=S(=O)(c1ccccc1Br)n1cc(C2CCN(Cc3ccccc3)C2)c2ccccc21 (stereo not given) | – | – | – | 21 nM | 62%
CN1CCC[C@H]1Cc1cn(S(=O)(=O)c2ccc(Cl)s2)c2ccccc12 | 4 nM | – | – | 1 nM | 99%
CN1CCC[C@H]1Cc1cn(S(=O)(=O)c2ccccc2)c2ccccc12 | 5 nM | – | – | 81.4 nM | 87%
O=S(=O)(c1ccccc1)n1c2c(c3ccccc31)CCNC2 | 253 nM | – | – | – | –
Nc1ccc(S(=O)(=O)n2c3c(c4ccccc42)CCNC3)cc1 | 116 nM | – | – | – | –
CN1CCC[C@H]1Cc1cn(S(=O)(=O)c2ccc(I)cc2)c2ccccc12 | 3 nM | – | – | 49.5 nM | 99.5%
CN1CCC[C@H]1Cc1cn(S(=O)(=O)c2ccc(N)cc2)c2ccccc12 | 3 nM | – | – | 24.5 nM | 100%
O=S(=O)(c1ccc(F)cc1)n1cc(C2=CCCNC2)c2ccccc21 | 10.5 nM | 345 nM | 62% | – | –
O=S(=O)(c1ccc(Cl)s1)n1cc(C2=CCCNC2)c2ccccc21 | 22.7 nM | – | – | – | –
O=S(=O)(c1ccc(Cl)s1)n1cc(C2CCCNC2)c2ccccc21 (stereo not given) | – | 58.5 nM | 93% | – | –
CN1CCC[C@H]1Cc1cn(S(=O)(=O)c2ccccc2Br)c2ccccc12 | 7 nM | – | – | 76.5 nM | 87.5%
O=S(=O)(c1ccccc1)n1cc(C2=CCCNC2)c2ccccc21 | 4.6 nM | 159 nM | 41% | – | –
Cc1ccc(S(=O)(=O)n2cc(C3CCN(Cc4ccccc4)C3)c3ccccc32)cc1 (stereo not given) | – | – | – | 123 nM | 72%
O=S(=O)(c1ccc(Br)s1)n1cc(C2CCN(Cc3ccccc3)C2)c2ccccc21 (stereo not given) | – | – | – | 110 nM | 69%
Nc1ccc(S(=O)(=O)n2cc(C[C@@H]3CCCN3)c3ccccc32)cc1 | 7 nM | – | – | 7.6 nM | 72.9%
COc1ccc(S(=O)(=O)n2cc(C[C@@H]3CCCN3)c3ccccc32)cc1 | 40 nM | – | – | – | –
O=S(=O)(c1ccccc1)n1cc(C2CCCNC2)c2ccccc21 (single isomer, unassigned; enantiomer 1) [listing 1 of 2 here] | 3 nM | – | – | – | –
O=S(=O)(c1ccc(F)c(F)c1)n1cc(C2=CCCNC2)c2ccccc21 | 26 nM | – | – | – | –
CN1CCC(c2cn(S(=O)(=O)c3ccccc3Br)c3ccccc23)C1 (stereo not given) | – | – | – | 53.3 nM | 98.5%
O=S(=O)(c1ccccc1)n1cc(C2CCCNC2)c2ccccc21 (stereo in doubt) [listing 1 of 2 here] | – | – | 100% | – | –
O=S(=O)(c1ccc(Cl)c(Cl)c1)n1cc(C2=CCCNC2)c2ccccc21 | 48 nM | – | – | – | –
Cc1nn(C)c(Cl)c1S(=O)(=O)n1cc(C2=CCCNC2)c2ccccc21 | 8 nM | 89.5 nM | 50% | – | –

SMILES | Ki [1] | EC50 [2] | Emax [3] | IC50 [4] | Imax [5]
CN1CCC(c2cn(S(=O)(=O)c3ccc(I)cc3)c3ccccc23)C1 (stereo not given) | – | – | – | 43.6 nM | 93.5%
Cc1ccc(S(=O)(=O)n2cc(C[C@@H]3CCCN3C)c3ccccc32)cc1 | 5 nM | – | – | 56.3 nM | 78.5%
O=S(=O)(c1ccc(Cl)s1)n1cc(C[C@@H]2CCCN2)c2ccccc21 | 25 nM | – | – | – | –
COc1ccc(S(=O)(=O)n2cc(C3CCCNC3)c3ccccc32)cc1 (stereo not given) | – | – | – | 7.3 nM | 65.5%
O=S(=O)(c1cccc(F)c1)n1cc(C2=CCCNC2)c2ccccc21 | 8.5 nM | 270 nM | 51.5% | – | –
CN1CCC(c2cn(S(=O)(=O)c3ccc(Cl)c(Cl)c3)c3ccccc23)C1 (stereo not given) | – | – | – | 107 nM | 100%
O=S(=O)(c1cccc(C(F)(F)F)c1)n1cc(C2=CCCNC2)c2ccccc21 | 44.7 nM | – | – | – | –
O=S(=O)(c1ccccc1F)n1cc(C2=CCCNC2)c2ccccc21 | 9.2 nM | 51 nM | 52% | – | –
O=S(=O)(c1ccccc1Cl)n1cc(C2=CCCNC2)c2ccccc21 | 13 nM | – | – | – | –
O=S(=O)(c1ccc(Cl)c(Cl)c1)n1cc(C[C@@H]2CCCN2)c2ccccc21 | 49 nM | – | – | – | –
Cc1c(S(=O)(=O)n2cc(C[C@H]3CCCN3)c3ccccc32)sc2ccc(Cl)cc12 | 284 nM | – | – | – | –
Cc1nc(C)c(S(=O)(=O)n2cc(C3=CCCNC3)c3ccccc32)o1 | 58 nM | – | – | – | –
O=S(=O)(c1ccc(Br)s1)n1cc(C[C@@H]2CCCN2)c2ccccc21 | 20 nM | – | – | – | –
CN1CCC[C@H]1Cc1cn(S(=O)(=O)c2cccc(Cl)c2)c2ccccc12 | 4 nM | – | – | 96.2 nM | 77%
COc1ccc(S(=O)(=O)n2cc(C[C@@H]3CCCN3)c3ccccc32)cc1OC | 23 nM | – | – | – | –
O=S(=O)(c1ccc(F)cc1F)n1cc(C2=CCCNC2)c2ccccc21 | 13 nM | – | – | – | –
O=S(=O)(c1ccc(Cl)cc1)n1cc(C2=CCCNC2)c2ccccc21 | 22 nM | – | – | – | –
O=S(=O)(c1ccccc1Br)n1cc(C[C@@H]2CCCN2)c2ccccc21 | 43 nM | – | – | – | –
O=S(=O)(c1ccc(F)c(F)c1)n1cc(C2CCCNC2)c2ccccc21 (stereo not given) | – | 66 nM | 60.5% | – | –
Cc1c(S(=O)(=O)n2cc(C[C@@H]3CCCN3C)c3ccccc32)sc2ccc(Cl)cc12 | 11 nM | – | – | 11 nM | 87.5%
Cc1c(S(=O)(=O)n2cc(C3CCCNC3)c3ccccc32)sc2ccc(Cl)cc12 (stereo not given) | 44 nM | – | – | – | –
O=S(=O)(c1ccccc1C(F)(F)F)n1cc(C2=CCCNC2)c2ccccc21 | 21.7 nM | – | – | – | –
O=S(=O)(c1ccc(I)cc1)n1cc(C[C@@H]2CCCN2)c2ccccc21 | 34 nM | – | – | – | –
Cc1ccc(S(=O)(=O)n2cc(C[C@@H]3CCCN3)c3ccccc32)cc1 | 33 nM | – | – | – | –
CN1CCC[C@H]1Cc1cn(S(=O)(=O)c2ccc(Br)s2)c2ccccc12 | 3 nM | – | – | 112 nM | 96%

SMILES | Ki [1] | EC50 [2] | Emax [3] | IC50 [4] | Imax [5]
CN1CCC(c2cn(S(=O)(=O)c3ccc(F)cc3)c3ccccc23)C1 (stereo not given) | – | – | – | 52.5 nM | 83.5%
COc1ccc(S(=O)(=O)n2cc(C3=CCCNC3)c3ccccc32)cc1 | 16 nM | – | – | – | –
O=S(=O)(c1ccccc1)n1cc(C[C@@H]2CCCN2)c2ccccc21 | 27.7 nM | – | – | – | –
O=S(=O)(c1cccc(Cl)c1)n1c2c(c3ccccc31)CCNC2 | 41.7 nM | – | – | – | –
O=S(=O)(c1ccccc1)n1cc(C2CCCNC2)c2ccccc21 (racemic) [listing 1 of 2 here] | – | 24 nM | – | – | –
O=S(=O)(c1ccccc1)n1cc(C2CCCNC2)c2ccccc21 (stereo in doubt) [listing 2 of 2 here] | 1 nM | 36 nM | – | – | –
CN1CCC(c2cn(S(=O)(=O)c3ccc(Cl)cc3)c3ccccc23)C1 (stereo not given) | – | – | – | 85.5 nM | 86.5%
O=S(=O)(c1ccc(Cl)c(Cl)c1)n1cc(C2CCN(Cc3ccccc3)C2)c2ccccc21 (stereo not given) | – | – | – | 61 nM | 63%
CN1CCC[C@@H]1Cc1cn(S(=O)(=O)c2ccccc2)c2ccccc12 | 8 nM | – | – | 0.6 nM | 75%
Cc1ccc(S(=O)(=O)n2c3c(c4ccccc42)CCNC3)cc1 | 271 nM | – | – | – | –
O=S(=O)(c1cccc(Cl)c1Cl)n1cc(C2=CCCNC2)c2ccccc21 | 20 nM | – | – | – | –
O=S(=O)(c1ccccc1)n1cc(C2CCCNC2)c2ccccc21 (single isomer, unassigned; enantiomer 1) [listing 2 of 2 here] | – | – | 0% | – | –
COc1ccc(S(=O)(=O)n2cc(C3CCN(C)C3)c3ccccc32)cc1OC (stereo not given) | – | – | – | 96.7 nM | 100%
Nc1ccc(S(=O)(=O)n2cc(C3CCN(Cc4ccccc4)C3)c3ccccc32)cc1 (stereo not given) | – | – | – | 25 nM | 97%
Cc1nc(N)sc1S(=O)(=O)n1cc(C2CCN(Cc3ccccc3)C2)c2ccccc21 (stereo not given) | – | – | – | 110 nM | 97%
CN1CCC[C@H]1Cc1cn(S(=O)(=O)c2ccc(Cl)c(Cl)c2)c2ccccc12 | 12 nM | – | – | 7.3 nM | 86.5%
COc1ccc(S(=O)(=O)n2cc(C[C@@H]3CCCN3C)c3ccccc32)cc1OC | 8 nM | – | – | 0.8 nM | 100%
CN1CCC[C@H]1Cc1cn(S(=O)(=O)c2ccc(Cl)cc2)c2ccccc12 | 7 nM | – | – | 8.2 nM | 86%
COc1ccc(S(=O)(=O)n2cc(C[C@@H]3CCCN3C)c3ccccc32)cc1 | 19.3 nM | – | – | – | –
O=S(=O)(c1ccccc1)n1cc(C2CCCNC2)c2ccccc21 (racemic) [listing 2 of 2 here] | – | – | 100% | – | –
O=S(=O)(c1cccs1)n1cc(C2CCCNC2)c2ccccc21 (stereo not given) | 9.8 nM | – | – | – | –
CN1CCC(c2cn(S(=O)(=O)c3ccc(N)cc3)c3ccccc23)C1 (stereo not given) | – | – | – | 15.5 nM | 89.5%
O=S(=O)(c1cccc(Cl)c1)n1cc(C2=CCCNC2)c2ccccc21 | 14 nM | – | – | – | –
